Where “and” joins values, the source holds several entries; their conditions need not be identical. Equal values may be shown once. Inconclusive results and toxic doses are left out. Rule as the data show it: active = T/C of 150% or more; inactive = T/C below 125%.
System: L1210 leukemia ip in BDF1 mice, survival T/C
Assay: NCI In Vivo Anticancer Drug Screen. Data for tumor model L1210 Leukemia (intraperitoneal) in B6D2F1 (BDF1) mice
Conditions: endpoint: mean survival time, higher = longer survival
In short: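 Mice bearing the transplanted tumor received compound or vehicle. Survival of the treated group was divided by that of the vehicle-treated control group to give the ratio.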

[1] = dose: 100.0 mg/kg/injection, schedule: Q01DX009 (ip), vehicle: Klucel (hydroxypropylcellulose) (HPC)
[2] = dose: 100.0 mg/kg/injection, schedule: Q04DX003 (ip), vehicle: Klucel (hydroxypropylcellulose) (HPC)
[3] = dose: 200.0 mg/kg/injection, schedule: Q04DX003 (ip), vehicle: Klucel (hydroxypropylcellulose) (HPC)
[4] = dose: 400.0 mg/kg/injection, schedule: Q01DX009 (ip), vehicle: Klucel (hydroxypropylcellulose) (HPC)
[5] = dose: 400.0 mg/kg/injection, schedule: Q04DX003 (ip), vehicle: Klucel (hydroxypropylcellulose) (HPC)
[6] = dose: 100.0 mg/kg/injection, schedule: Q01DX009 (ip), vehicle: saline with Tween-80
[7] = dose: 200.0 mg/kg/injection, schedule: Q01DX009 (ip), vehicle: saline with Tween-80
[8] = dose: 400.0 mg/kg/injection, schedule: Q01DX009 (ip), vehicle: saline with Tween-80
[9] = dose: 100.0 mg/kg/injection, schedule: Q01DX009 (ip), vehicle: saline
[10] = dose: 100.0 mg/kg/injection, schedule: Q04DX003 (ip), vehicle: saline
[11] = dose: 200.0 mg/kg/injection, schedule: Q01DX009 (ip), vehicle: saline
[12] = dose: 200.0 mg/kg/injection, schedule: Q04DX003 (ip), vehicle: saline
[13] = dose: 400.0 mg/kg/injection, schedule: Q01DX009 (ip), vehicle: saline
[14] = dose: 400.0 mg/kg/injection, schedule: Q04DX003 (ip), vehicle: saline
[15] = dose: 100.0 mg/kg/injection, schedule: Q04DX003 (ip), vehicle: saline with Tween-80
[16] = dose: 200.0 mg/kg/injection, schedule: Q04DX003 (ip), vehicle: saline with Tween-80
[17] = dose: 100.0 mg/kg/injection, schedule: Q01DX001 (ip), vehicle: saline
[18] = dose: 200.0 mg/kg/injection, schedule: Q01DX001 (ip), vehicle: saline
[19] = dose: 400.0 mg/kg/injection, schedule: Q01DX001 (ip), vehicle: saline

Measured: T/C

CCC(=O)N(C)C(=NC)c1ccc(NC(=O)c2ccc(C(=O)Nc3ccc(C(=NC)N(C)C(=O)CC)cc3)cc2)cc1
inactive: dose: 75.0 mg/kg/injection, schedule: Q01DX015 (ip), vehicle: carboxymethylcellulose (CMC) 90 % of control | dose: 100.0 mg/kg/injection, schedule: Q01DX015 (ip), vehicle: carboxymethylcellulose (CMC) 91 % of control | dose: 150.0 mg/kg/injection, schedule: Q01DX015 (ip), vehicle: carboxymethylcellulose (CMC) 90 % of control | dose: 200.0 mg/kg/injection, schedule: Q01DX015 (ip), vehicle: carboxymethylcellulose (CMC) 97 % of control

COc1cc(C(=O)CCC(=O)O)cc(OC)c1OC
inactive: [1] 96 % of control | [2] 96 % of control | dose: 200.0 mg/kg/injection, schedule: Q01DX009 (ip), vehicle: Klucel (hydroxypropylcellulose) (HPC) 104 % of control | [3] 102 % of control | [4] 102 % of control | [5] 93 % of control

COc1cccc(OC)c1C1(O)c2c(OC)cccc2Oc2cccc(OC)c21
inactive: [6] 93 % of control | [7] 90 % of control | [8] 90 % of control

O=C(Cn1ccc(O)cc1=O)N1CCC2(CC1)SSC1(CCN(C(=O)Cn3ccc(O)cc3=O)CC1)S2
inactive: [9] 86 % of control | [10] 102 % of control | [11] 93 % of control | [12] 94 % of control | [13] 94 % of control | [14] 88 % of control

O=C1OC(c2ccc([N+](=O)[O-])cc2)Sc2ccccc21 (stereo unspecified)
inactive: [9] 98 % of control | [10] 106 % of control | [11] 94 % of control | [12] 108 % of control | [13] 91 % of control | [14] 97 % of control

ClCc1c(CCl)c2c(c3c1CCCC3)CCCC2
inactive: [2] 100 % of control | [3] 100 % of control | [5] 103 % of control

CC(=O)Nc1ccc(OC(=O)Nc2ccccc2Cl)cc1
inactive: [1] 101 % of control | [2] 96 % of control | [3] 95 % of control | [4] 101 % of control | [5] 95 % of control

Cn1c2c(sc1=O)CCC2
inactive: dose: 50.0 mg/kg/injection, schedule: Q01DX Z (ip), vehicle: methylcellulose (MC) 102 % of control and 105 % of control | dose: 100.0 mg/kg/injection, schedule: Q01DX001 (ip), vehicle: other 103 % of control | dose: 100.0 mg/kg/injection, schedule: Q01DX Z (ip), vehicle: methylcellulose (MC) 111 % of control | [2] 99 % of control | dose: 200.0 mg/kg/injection, schedule: Q01DX001 (ip), vehicle: other 111 % of control | dose: 200.0 mg/kg/injection, schedule: Q01DX Z (ip), vehicle: methylcellulose (MC) 93 % of control | [3] 100 % of control | dose: 400.0 mg/kg/injection, schedule: Q01DX001 (ip), vehicle: other 105 % of control

COc1ccc(N2C(=O)CCC2=O)cc1
inactive: [6] 107 % of control | [15] 106 % of control | [7] 95 % of control | [16] 92 % of control | [8] 98 % of control | dose: 400.0 mg/kg/injection, schedule: Q04DX003 (ip), vehicle: saline with Tween-80 111 % of control

Nc1cc(Cl)ccc1N1CCCC1
inactive: [10] 94 % of control | [12] 90 % of control

CCCCC1(CC)COC(C)(CCc2ccc(OC)cc2)OC1 (stereo unspecified)
inactive: dose: 100.0 mg/kg/injection, schedule: Q01DX001 (ip), vehicle: acetone 93 % of control | dose: 200.0 mg/kg/injection, schedule: Q01DX001 (ip), vehicle: acetone 93 % of control | dose: 400.0 mg/kg/injection, schedule: Q01DX001 (ip), vehicle: acetone 90 % of control

CN1CC2(CCN(CC3COc4ccccc4O3)CC2)OC1=O (stereo unspecified)
inactive: dose: 50.0 mg/kg/injection, schedule: Q01DX001 (ip), vehicle: Klucel (hydroxypropylcellulose) (HPC) 93 % of control | dose: 100.0 mg/kg/injection, schedule: Q01DX001 (ip), vehicle: Klucel (hydroxypropylcellulose) (HPC) 103 % of control | dose: 200.0 mg/kg/injection, schedule: Q01DX001 (ip), vehicle: Klucel (hydroxypropylcellulose) (HPC) 117 % of control | dose: 400.0 mg/kg/injection, schedule: Q01DX001 (ip), vehicle: Klucel (hydroxypropylcellulose) (HPC) 107 % of control

O=C(O)C1C2C=CCC1CC2 (stereo unspecified)
inactive: dose: 100.0 mg/kg/injection, schedule: Q04DX003 (ip), vehicle: alcohol 100 % of control | dose: 200.0 mg/kg/injection, schedule: Q04DX003 (ip), vehicle: alcohol 103 % of control | dose: 400.0 mg/kg/injection, schedule: Q04DX003 (ip), vehicle: alcohol 100 % of control

COc1cccc(/C(C)=N\NC(=O)c2ccccc2)c1
inactive: dose: 25.0 mg/kg/injection, schedule: Q04DX003 (ip), vehicle: saline with Tween-80 88 % of control | dose: 50.0 mg/kg/injection, schedule: Q04DX003 (ip), vehicle: saline with Tween-80 90 % of control | [15] 92 % of control

CCC(C)C(CN)(CCCCN1CCCCC1)c1cccc2ccccc12 (stereo unspecified)
inactive: [15] 97 % of control | [16] 90 % of control

CC1(C)C2CC1C(O)(C(=O)O)C2 (stereo unspecified)
inactive: dose: 75.0 mg/kg/injection, schedule: Q01DX001 (ip), vehicle: acetone 94 % of control | dose: 150.0 mg/kg/injection, schedule: Q01DX001 (ip), vehicle: acetone 97 % of control | dose: 300.0 mg/kg/injection, schedule: Q01DX001 (ip), vehicle: acetone 96 % of control

CCCCCCCC/C=C\CCCCCCCCSC#N
inactive: dose: 25.0 mg/kg/injection, schedule: Q04DX002 (ip), vehicle: saline with Tween-80 97 % of control | dose: 50.0 mg/kg/injection, schedule: Q04DX002 (ip), vehicle: saline with Tween-80 106 % of control | [6] 97 % of control | dose: 100.0 mg/kg/injection, schedule: Q04DX002 (ip), vehicle: saline with Tween-80 100 % of control | [7] 97 % of control | dose: 200.0 mg/kg/injection, schedule: Q04DX002 (ip), vehicle: saline with Tween-80 103 % of control | dose: 400.0 mg/kg/injection, schedule: Q04DX002 (ip), vehicle: saline with Tween-80 87 % of control

O=C(c1ccccc1)c1nc2ccccc2nc1-c1ccccc1
inactive: [2] 92 % of control | [3] 92 % of control | [5] 89 % of control

CCOC(=O)c1cnn(C(N)=O)c1N
inactive: [6] 108 % of control | [7] 96 % of control

CC(C)COC(=O)C1(N)CCCC1
inactive: dose: 30.0 mg/kg/injection, schedule: Q01DX Z (ip), vehicle: saline 113 % of control | dose: 45.0 mg/kg/injection, schedule: Q01DX009 (ip), vehicle: saline 109 % of control | dose: 45.0 mg/kg/injection, schedule: Q01DX Z (ip), vehicle: saline 121 % of control | dose: 66.0 mg/kg/injection, schedule: Q01DX009 (ip), vehicle: saline 114 % of control | dose: 150.0 mg/kg/injection, schedule: Q01DX Z (ip), vehicle: saline 114 % of control and 118 % of control | dose: 224.0 mg/kg/injection, schedule: Q01DX Z (ip), vehicle: saline 120 % of control | dose: 336.0 mg/kg/injection, schedule: Q01DX Z (ip), vehicle: saline 103 % of control

O/N=C(/Cc1ccccc1)CC(O)(C(F)(F)F)C(F)(F)F
inactive: [17] 110 % of control | [9] 95 % of control | [18] 95 % of control | [11] 102 % of control | [19] 89 % of control | [13] 95 % of control

C/C(=N/NC(=O)C1CCCO1)c1ccc(C)cc1 (stereo unspecified)
inactive: dose: 12.5 mg/kg/injection, schedule: Q01DX009 (ip), vehicle: Klucel (hydroxypropylcellulose) (HPC) 104 % of control | dose: 25.0 mg/kg/injection, schedule: Q01DX009 (ip), vehicle: Klucel (hydroxypropylcellulose) (HPC) 102 % of control

CN(C)c1ccc(-c2nc3ccccc3s2)cc1
inactive: dose: 50.0 mg/kg/injection, schedule: Q04DX003 (ip), vehicle: Klucel (hydroxypropylcellulose) (HPC) 105 % of control | [2] 100 % of control | [3] 96 % of control

CC(C)(C)S/C=C/C(N)=O
inactive: dose: 50.0 mg/kg/injection, schedule: Q01DX009 (ip), vehicle: saline 98 % of control | [17] 91 % of control | [9] 96 % of control | [18] 93 % of control | [11] 94 % of control

CN(C)Cc1c(Cl)cccc1C(O)c1ccccc1 (stereo unspecified)
inactive: dose: 50.0 mg/kg/injection, schedule: Q01DX001 (ip), vehicle: saline 96 % of control | [17] 106 % of control | [18] 106 % of control | [19] 95 % of control
